Experiment [1] relates to p-AMPK, p-Sirt1, p-p38, p-Nrf2 in C2C12 cells. Kind of experiment: Western blot of proteins related with PGC-1α activation in C2C12 cells. In kind it is cell-based, mice. The settings on record: C2C12, 0.36 μg/mL (Cr 5 μg/mL), control G1 = 1.00. As to the method:
C2C12 cells were dispensed into a 6-well plate at 2×10^5 cells/well and stabilized for 24 hours. In order to investigate the effect of each test substance on muscle cell differentiation, each test substance was added to the myocyte differentiation medium. The cells were cultured for 4 days (mRNA analysis) or 7 days (protein analysis) after exchanging the cell culture medium with the myocyte differentiation medium treated with each test substance, as shown in Table 2.
C2C12 cells were dispensed into a 6-well plate at 2×10^5 cells/well and stabilized for 24 hours. The cells were cultured for 7 days after exchanging the culture medium with a myocyte differentiation medium containing the test substance. After the induction of differentiation for 7 days, the cells were homogenized by adding a lysis buffer (20 mmol/L HEPES, pH 7.5, 150 mmol/L NaCl, 1% Triton X-100, 1 mmol/L EDTA, 1 mmol/L EGTA, 100 mmol/L NaF, 10 mmol/L sodium pyrophosphate, 1 mmol/L Na3VO4, 20 μg/mL aprotinin, 10 μg/mL antipain, 10 μg/mL leupeptin, 80 μg/mL benzamidine HCl, 0.2 mmol/L PMSF) and a total cell lysate was obtained through centrifugation. The protein quantity of the total cell lysate was measured using a BCA protein assay kit (Thermo Scientific). The total cell lysate (50 μg) was separated by 10% sodium dodecyl sulfate polyacrylamide gel electrophoresis (SDS-PAGE) and then transferred to a polyvinylidene difluoride membrane (Milipore). The membrane was blocked for 1 hour in 5% skim milk-TBST (20 mmol/L Tris·HCl, pH 7.5, 150 mmol/L NaCl, 0.1% Tween 20) and then incubated for 16 hours at 4° C. or for 1 hour at room temperature after adding antibodies. Thereafter, horseradish peroxidase (HRP)-linked anti-rabbit IgG or HRP-linked anti-mouse IgG was added and the mixture was stirred for 1 hour. The detected protein bands were visualized by enhanced chemiluminescence using a Luminata™ Forte Western HRP substrate (Millipore). The level of protein expression was quantified using the ImageQuant™ LAS 500 imaging system (GE Healthcare Bio-Sciences AB).
The result of western blot analysis conducted using the total cell lysate obtained by treating with the test substance to investigate the effect of the test substance on the changes in proteins associated with PGC-1α activation is shown in Table 6.
Based on the western blot analysis result, the activity of each protein was evaluated from the ratio of activation.

In experiment [2] the test system is C2C12 cells. Nature of the experiment: Intracellular ROS production in C2C12 cells (DCF-DA). In kind it is cell-based, mice. The settings on record: oxidative stress by 50 μM TBHP, 1 h pretreatment with test substance. As to the method:
C2C12 cells were dispensed into a 96-well plate at 1×10^4 cells/well and stabilized for 24 hours. Subsequently, the cells were cultured for 1 hour after exchanging with the culture medium with the myocyte differentiation medium containing each test substance. After 1 hour, the cells were washed with PBS and cultured further for 3 hours with a culture medium containing 50 μM tert-butyl hydrogen peroxide (TBHP), and the ROS level in the cells was measured using a DCF-DA assay kit (Abcam) according to the manufacturer's method.
In order to investigate the effect of each of the compositions according to Examples 1 to 4 on ROS production in C2C12 cells, ROS production was measured using 2′,7′-dichlorofluorescin diacetate (DCF-DA). DCF-DA was measured using the principle that it is oxidized by ROS in cells and is converted to DCF, which emits fluorescence.

For `O=C(O)c1ccc2c3c1cccc3c(=O)n1c3ccccc3nc21` [STO], in experiment [1], the p-AMPK/AMPK ratio result is reported as “significantly inhibited”, the p-Nrf2/Nrf2 ratio result is “significantly inhibited” and the p-p38/p38 ratio result is “significantly inhibited”. Moreover, the “ROS production (fluorescence intensity)” value in experiment [2] was 33.97±2.22 fluorescence intensity.

The values are drawn from patent publication US20250057864A1, “COMPOSITION FOR IMPROVING EXERCISE PERFORMANCE COMPRISING GYPENOSIDE COMPOUND AS ACTIVE INGREDIENT” (BTC CORPORATION, priority 2022, published 2025).
